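Following 48 hours of exposure in 96-well plates, responses at five concentrations were used to interpolate endpoints linearly. At the GI50, growth is halved.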 The source made the active and inactive calls. Cut-off read from the data, not from the text of the source: active = GI50 up to about 1.1 µM and inactive = higher.
What was measured:
Assay in all cases: NCI-60 cell line screen, 48 h
UO-31 = test system: UO-31
DU-145 = test system: DU-145
MCF7 = test system: MCF7
SNB-19 = test system: SNB-19
NCI-H522 = test system: NCI-H522
SR = test system: SR
IGROV-1 = test system: IGROV-1
UACC-62 = test system: UACC-62
NCI/ADR-RES = test system: NCI/ADR-RES
SN12C = test system: SN12C
RXF 393 = test system: RXF 393
SK-MEL-5 = test system: SK-MEL-5
UACC-257 = test system: UACC-257
MDA-MB-231 = test system: MDA-MB-231
SF-539 = test system: SF-539
HCT-116 = test system: HCT-116
NCI-H460 = test system: NCI-H460
CAKI-1 = test system: CAKI-1
OVCAR-8 = test system: OVCAR-8
RPMI-8226 = test system: RPMI-8226

Measured: GI50

COC(=O)C1(CCC(=O)N(C)c2ccccc2)NNC2C(=O)N(c3ccccc3)C(=O)C21 (stereo not given)
inactive: UO-31 > 10 µM | DU-145 > 10 µM | MCF7 > 10 µM | SNB-19 > 10 µM | NCI-H522 > 10 µM | SR > 10 µM | IGROV-1 > 10 µM | UACC-62 > 10 µM | NCI/ADR-RES > 10 µM | SN12C > 10 µM | RXF 393 > 10 µM | SK-MEL-5 > 10 µM | UACC-257 > 10 µM | MDA-MB-231 > 10 µM | SF-539 > 10 µM | HCT-116 > 10 µM | NCI-H460 > 10 µM | CAKI-1 > 10 µM | OVCAR-8 > 10 µM | RPMI-8226 > 10 µM

C=C1C(=O)O[C@@H]2C[C@@]3(C)CCC[C@H](C)C3=C[C@H]12 [HELENINE]
inactive: UO-31 4.95 µM | DU-145 12 µM | MCF7 4.58 µM | SNB-19 16.5 µM | NCI-H522 3.18 µM | SR 1.19 µM | IGROV-1 16.1 µM | UACC-62 6.46 µM | NCI/ADR-RES 7.74 µM | SN12C 3.01 µM | RXF 393 6.12 µM | SK-MEL-5 4.8 µM | UACC-257 7.21 µM | MDA-MB-231 14.2 µM | SF-539 10.6 µM | HCT-116 4.45 µM | NCI-H460 17 µM | CAKI-1 5.33 µM | OVCAR-8 6.19 µM | RPMI-8226 1.76 µM

From ChEMBL document CHEMBL1201862, “PubChem BioAssay data set” (2004)
